# Measurements as given in US12077503B2, “Substituted cyclic amides and their use as herbicides” (FMC CORPORATION, priority 2015, dated 2024).
# Assays:
# Assay type in all cases: in vivo
# [1] = test system: sedge, umbrella (small-flower umbrella sedge, Cyperus difformis); assay: Test B flooded paddy test; conditions: Flood, 0 to 100 scale where 0 is no effect and 100 is complete control, 13 to 15 d
# Summary of the method: (§1)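 Plants at 2-leaf stage flooded to 3 cm above soil, with compounds applied directly to paddy water and that depth maintained. Plants kept in greenhouse 13–15 d. Visual rating versus controls on a 0 (no effect) to 100 (complete control) scale.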
# [2] = test system: barnyardgrass (Echinochloa crus-galli); assay: Test B flooded paddy test; conditions: Flood, 0 to 100 scale where 0 is no effect and 100 is complete control, 13 to 15 d
# Summary of the method: as §1
# [3] = test system: ducksalad (Heteranthera limosa); assay: Test B flooded paddy test; conditions: Flood, 0 to 100 scale where 0 is no effect and 100 is complete control, 13 to 15 d
# Summary of the method: as §1
# rice (Oryra sativa) = assay: Test B flooded paddy test; conditions: Flood, 0 to 100 scale where 0 is no effect and 100 is complete control, 13 to 15 d
# Summary of the method: as §1
# [4] = test system: giant foxtail (Setaria faberii); assay: Test A preemergence
# Summary of the method: (§2)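 Greenhouse, ~10 d after spray; visual injury vs untreated controls, 0 = no effect, 100 = complete control. Preemergence: directed soil spray over planted seeds. Postemergence: plants 2–10 cm, 1–2 leaf stage. Loam/sand blend. Compound in non-phytotoxic solvent with surfactant.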
# [5] = test system: ryegrass, Italian (Italian ryegrass, Lolium multiflorum); assay: Test A preemergence; conditions: preemergence
# Summary of the method: as §2
# Kochia (Kochia scoparia) [6] = assay: Test A preemergence
# Summary of the method: as §2
# [7] = test system: barnyardgrass (Echinochloa crus-galli); assay: Test A preemergence
# Summary of the method: as §2
# [8] = test system: pigweed (Amaranthus retroflexus); assay: Test A preemergence; conditions: preemergence
# [9] = test system: ragweed (common ragweed, Ambrosia elatior); assay: Test A preemergence; conditions: preemergence
# Summary of the method: as §2
# corn (Zea mays) = assay: Test A postemergence; conditions: postemergence, 0 to 100 scale (0 no effect, 100 complete control)
# Summary of the method: as §2
# [10] = test system: wheat (Triticum aestivum); assay: Test A postemergence; conditions: postemergence, 0 to 100 scale (0 no effect, 100 complete control)
# Summary of the method: as §2
# [11] = test system: giant foxtail (Setaria faberii); assay: Test A postemergence; conditions: postemergence, 0 to 100 scale (0 no effect, 100 complete control)
# Summary of the method: as §2
# [12] = test system: ryegrass, Italian (Italian ryegrass, Lolium multiflorum); assay: Test A postemergence; conditions: postemergence, 0 to 100 scale (0 no effect, 100 complete control)
# Summary of the method: as §2
# Kochia (Kochia scoparia) [13] = assay: Test A postemergence; conditions: postemergence, 0 to 100 scale (0 no effect, 100 complete control)
# Summary of the method: as §2
# [14] = test system: blackgrass (Alopecurus myosuroides); assay: Test A postemergence; conditions: postemergence, 0 to 100 scale (0 no effect, 100 complete control)
# Summary of the method: as §2
# [15] = test system: barnyardgrass (Echinochloa crus-galli); assay: Test A postemergence; conditions: postemergence, 0 to 100 scale (0 no effect, 100 complete control)
# Summary of the method: as §2
# [16] = test system: pigweed (Amaranthus retroflexus); assay: Test A postemergence; conditions: postemergence, 0 to 100 scale (0 no effect, 100 complete control)
# Summary of the method: as §2
# [17] = test system: ragweed (common ragweed, Ambrosia elatior); assay: Test A postemergence; conditions: postemergence, 0 to 100 scale (0 no effect, 100 complete control)
# Summary of the method: as §2
# [18] = test system: Galium (catchweed bedstraw, Galium aparine); assay: Test A postemergence; conditions: postemergence, 0 to 100 scale (0 no effect, 100 complete control)
# Summary of the method: as §2
# [19] = 125 g ai/ha, Preemergence, visual injury after approximately 10 d, 0 to 100 scale where 0 is no effect and 100 is complete control
# [20] = 500 g ai/ha, preemergence, 0 to 100 scale, 0 = no effect, 100 = complete control
# [21] = 125 g ai/ha, visual rating after approx. 10 d, 0 to 100 scale where 0 is no effect and 100 is complete control
# [22] = 500 g ai/ha, 0 to 100 scale, 0 = no effect, 100 = complete control
# [23] = 125 g ai/ha, visual injury after approximately 10 d
# [24] = 500 g ai/ha, visual injury, approx. 10 d
# [25] = 125 g ai/ha, visual rating after approx. 10 d
# [26] = 125 g ai/ha, preemergence, visual rating after approx. 10 d, 0 to 100 scale where 0 is no effect and 100 is complete control
Compound,"Plant response rating, Foxtail, Giant [4, 20]","Plant response rating, Ryegrass, Italian [5, 21]","Plant response rating, Ryegrass, Italian [5, 22]","Plant response rating, Kochia (Kochia (Kochia scoparia) [6]; [20])","Plant response rating, Barnyardgrass [7, 20]","Plant response rating, Pigweed [8, 21]","Plant response rating, Pigweed [8, 22]","Plant response rating, Ragweed [9, 21]","Plant response rating, Ragweed [9, 22]","Plant response rating, Corn (corn (Zea mays); [23])","Plant response rating, Corn (corn (Zea mays); [24])","Plant response rating, Wheat [10, 23]","Plant response rating, Wheat [10, 24]","Plant response rating, Foxtail, Giant [11, 23]","Plant response rating, Foxtail, Giant [11, 24]","Plant response rating, Ryegrass, Italian [12, 23]","Plant response rating, Ryegrass, Italian [12, 24]","Plant response rating, Kochia (Kochia (Kochia scoparia) [13]; [23])","Plant response rating, Kochia (Kochia (Kochia scoparia) [13]; [24])","Plant response rating, Blackgrass [14, 24]",further results
O=C1NCC(c2cccc(Br)c2)C1C(=O)Nc1ccc(F)cc1F (racemic) [Compound 687],90,0,20,40,90,0,30,0,0,0,70,0,60,80,90,20,40,0,30,40,"Plant response rating, Sedge, Umbrella ([1]; 250 g ai/ha): 0; Plant response rating, Barnyardgrass ([2]; 250 g ai/ha): 35; Plant response rating, Ducksalad ([3]; 250 g ai/ha): 80; Plant response rating, Rice (rice (Oryra sativa); 250 g ai/ha): 0; Plant response rating, Foxtail, Giant [4, 19]: 90; Plant response rating, Kochia (Kochia (Kochia scoparia) [6]; [19]): 0; Plant response rating, Barnyardgrass [7, 19]: 90; Plant response rating, Blackgrass [14, 25]: 30; Plant response rating, Barnyardgrass [15, 25]: 90; Plant response rating, Barnyardgrass [15, 24]: 90; Plant response rating, Pigweed [16, 23]: 0; Plant response rating, Pigweed [16, 24]: 20; Plant response rating, Ragweed [17, 23]: 30; Plant response rating, Ragweed [17, 24]: 30; Plant response rating, Galium [18, 23]: 0; Plant response rating, Galium [18, 24]: 20"
COC(=O)c1ccccc1NC(=O)C1C(=O)NCC1c1cccc(C(F)(F)F)c1 (racemic) [Compound 705],0,0,0,0,0,0,0,0,0,0,0,0,0,0,0,0,0,0,0,0,"Plant response rating, Sedge, Umbrella ([1]; 500 g ai/ha): 0; Plant response rating, Barnyardgrass ([2]; 500 g ai/ha): 0; Plant response rating, Ducksalad ([3]; 500 g ai/ha): 0; Plant response rating, Rice (rice (Oryra sativa); 500 g ai/ha): 0; Plant response rating, Foxtail, Giant [4, 26]: 0; Plant response rating, Kochia (Kochia (Kochia scoparia) [6]; [26]): 0; Plant response rating, Barnyardgrass [7, 26]: 0; Plant response rating, Blackgrass [14, 23]: 0; Plant response rating, Barnyardgrass [15, 23]: 0; Plant response rating, Barnyardgrass [15, 24]: 0; Plant response rating, Pigweed [16, 23]: 0; Plant response rating, Pigweed [16, 24]: 0; Plant response rating, Ragweed [17, 23]: 0; Plant response rating, Ragweed [17, 24]: 0; Plant response rating, Galium [18, 23]: 0; Plant response rating, Galium [18, 24]: 0"
